Test results from patent US6166000A, “Methods for preparation and use of 1α,24(S)-Dihydroxy vitamin . D.sub2” (priority 1995, dated 2000).
Entries after “also recorded” stand apart in the source; their conditions may differ.

Columns and labels:
[1] = molecular target: T1, vitamin D receptor (VDR) (Homo sapiens, UniProt P11473); assay: Vitamin D-dependent transcriptional activation: growth hormone production in COS-1 cells co-transfected with VDR plasmid and VDRE-GH plasmid; type: cell-based; conditions: in words
T1 sequence (P11473 1-427): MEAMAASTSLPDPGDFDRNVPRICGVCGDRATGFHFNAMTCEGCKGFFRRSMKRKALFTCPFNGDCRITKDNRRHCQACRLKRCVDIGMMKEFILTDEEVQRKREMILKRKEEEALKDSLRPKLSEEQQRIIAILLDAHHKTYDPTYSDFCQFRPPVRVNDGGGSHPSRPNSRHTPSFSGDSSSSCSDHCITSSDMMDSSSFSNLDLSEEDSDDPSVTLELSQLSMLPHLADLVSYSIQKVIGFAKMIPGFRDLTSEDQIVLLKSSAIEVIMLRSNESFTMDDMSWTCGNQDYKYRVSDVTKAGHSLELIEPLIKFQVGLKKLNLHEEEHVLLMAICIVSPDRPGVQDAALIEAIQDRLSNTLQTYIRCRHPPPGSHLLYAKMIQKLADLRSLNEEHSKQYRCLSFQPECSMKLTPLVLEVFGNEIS
Description: The biological activity in vitro of chemically synthesized 1α,24(S)-(OH)2 D2 and 1α,24(R)-(OH)2 D2 was measured using a vitamin D-dependent transcriptional activation model system in which a vitamin D receptor (VDR)-expressing plasmid pSG5-hVDR1/3and a plasmid p(CT4)^4 TKGH containing a Growth Hormone (GH)-gene, under the control of a vitamin D-responsive element (VDRE) were co-transfected into Green monkey kidney, COS-1 cells. DNA's for these two vectors were supplied by Dr. Mark Haussler, Department of Biochemistry, University of Arizona, Tucson, Ariz.
Tranfected cells were incubated with vitamin D metabolites and growth hormone production was measured.

[2] = molecular target: T2, bovine thymus VDR (Bos taurus, UniProt Q28037); assay: Radioreceptor assay, displacement of 3H-1α,25-(OH)2 D3 tracer (Incstar kit); type: binding; conditions: in words
T2 construct: commercially available kit of bovine thymus VDR; purchased Incstar (Stillwater, Minn.); host or cells: bovine thymus
T2 sequence (Q28037 1-426): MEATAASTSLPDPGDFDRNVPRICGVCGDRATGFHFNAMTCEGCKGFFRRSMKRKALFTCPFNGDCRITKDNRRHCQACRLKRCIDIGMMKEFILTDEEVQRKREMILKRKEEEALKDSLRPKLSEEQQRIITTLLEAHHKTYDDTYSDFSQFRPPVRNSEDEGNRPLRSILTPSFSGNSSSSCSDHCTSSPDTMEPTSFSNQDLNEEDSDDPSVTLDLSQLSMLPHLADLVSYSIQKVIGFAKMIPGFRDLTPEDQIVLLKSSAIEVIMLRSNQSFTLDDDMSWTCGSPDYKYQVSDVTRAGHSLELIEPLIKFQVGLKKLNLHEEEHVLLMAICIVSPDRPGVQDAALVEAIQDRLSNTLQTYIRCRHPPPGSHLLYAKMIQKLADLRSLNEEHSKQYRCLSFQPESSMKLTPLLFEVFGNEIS
Excerpt: Purified 1α,24(S)-(OH)2 D2 was quantitated by photodiode array spectrophotometry and assayed in the radioreceptor assay.
The purified 1α,24(R)-(OH)2 D2 and 1α,24(S)-(OH)2 D2 epimers were quantitated by ultraviolet spectroscopy. The concentration of 1α,24(R)-(OH)2 D2 required to produce the same displacement of ^3 H-1α,25-(OH)2 D3 tracer from the receptor was 20 to 30 times that required for 1α,24(S)-(OH)2 D2, as shown in FIG. 4.

[3] = system: postmenopausal osteoporotic women; assay: Dose ranging study in postmenopausal osteoporotic women; type: in vivo, human; conditions: oral 0.5 to 8.0 μg/day, escalated weekly over five weeks
Description: Twenty postmenopausal osteoporotic women are enrolled in an open label study.
On admission to the study, all patients receive instruction on selecting a daily diet containing 400 to 600 mg of calcium. Compliance to this diet is verified at weekly intervals by 24-hour food records and by interviews with each patient.
All patients complete a one-week baseline period, a five-week treatment period, and a one-week post-treatment observation period. During the treatment period, patients orally self-administer 1α,24(S)-dihydroxyvitamin D2 at an initial dose of 0.5 μg/day for the first week, and at successively higher doses of 1.0, 2.0, 4.0, and 8.0 μg/day in each of the following four weeks. All doses are administered before breakfast.
Blood and urine chemistries are monitored on a weekly basis throughout the study. Key blood chemistries include fasting serum levels of-calcium, phosphorus, osteocalcin, creatinine, and blood urea nitrogen. Key urine chemistries include 24-hour excretion of calcium, phosphorus, and creatinine.

[4] = system: men and women with renal disease undergoing chronic hemodialysis; assay: Management of hypocalcemia and metabolic bone disease in chronic hemodialysis patients; type: in vivo, human; conditions: greater than 3.0 μg/day, twelve months; double-isotope technique
Description: A twelve-month, double-blind, placebo-controlled clinical trial is conducted with thirty men and women with renal disease who are undergoing chronic hemodialysis. […] Efficacy is evaluated by pre- and post-treatment comparisons of the two patient groups with regard to (a) direct measurements of intestinal calcium absorption, (b) total body calcium retention, (c) radial and spinal bone mineral density, or (d) determinations of serum calcium. Safety is evaluated by regular monitoring of serum calcium.

[5] = system: HL-60 promyelocytes; assay: HL-60 cell differentiation assay; type: cell-based; conditions: dose-response; acid esterase, NBT reduction, thymidine incorporation
Description: A dose-response study is conducted with 1α,24(S)-(OH)2 D2 in the HL-60 cell differentiation assay as described by DeLuca and Ostrom (DeLuca, H. F. and Ostrem, V. K., Prog. Clin. Biol. Res., vol. 259, pp. 41-55 (1988)). In this study, 1α,25-(OH)2 D3 is used as a positive control and appropriate solvents are used as negative controls. The following variables are evaluated: nonspecific acid esterase activity, nitroblue tetrazolium (NBT) reduction, and thymidine incorporation.

C=C1/C(=C\C=C2/CCC[C@]3(C)[C@@H]([C@H](C)/C=C/[C@@](C)(O)C(C)C)CC[C@@H]23)C[C@@H](O)C[C@@H]1O [1α,24(S)-(OH)2 D2, 1α,24(S)-dihydroxy Vitamin D2]
activity in the transcriptional activation system compared with 1α,24(R)-(OH)2 D2 [1]: significantly more activity
affinity for VDR relative to 1α,25-(OH)2 D3 [2]: two-fold less competitive; also recorded: two-fold lower affinity
routinely monitored serum parameters [3]: no effect
serum osteocalcin levels [3]: increases
urinary excretion of hydroxyproline [3]: nor does it increase
intestinal calcium absorption [4]: significantly increases
differentiation of HL-60 promyelocytes to monocytes [5]: potent activity in promoting differentiation
